This note sets out measurements from patent US11932870B2, “Compositions and methods for immune cell modulation in adoptive immunotherapies” (Fate Therapeutics, Inc., priority 2016, dated 2024).

Common to all, as to format: cell-based, human
The subject of assay [1] is viable CD8+ population. The assay is described as follows: T cell compound screen: CCR7+CD62L+ cells in the viable CD8+ population (flow cytometry). The note with it: 10 μM, about 6 days, anti-CD3/anti-CD28 beads; hit = Z-score > +2 for percent or absolute number CCR7+CD62L+ in CD8+. The source says:
(§1) In Vitro T Cell Culture. Fresh leukopaks (AllCells, Alameda, CA) were obtained from healthy donors, from which T cells were negatively selected using the EasySep Human T cell Enrichment Kit (Stem Cell Technologies, Vancouver, Canada). The freshly isolated T cells were aliquoted and cryopreserved. On the day the screens were initiated, T cells were thawed and washed into X-Vivo 15 with 5% human AB serum, IL-2, pen/strep, and additional supplements. Cells were dispensed into flat-bottom 384-well plates at 5×10^5 cells/ml with anti-CD3/anti-CD28 beads. Individual compounds were added at a final concentration of 10 μM to each well from column 3 to column 22 of each plate. Positive and negative controls were added to additional wells. Cells were incubated for about 6 days at 37 degrees with 5% CO2.
(§2) Flow Cytometry. On Day 6 of culture, cells were stained with a fixable viability marker and fluorophore-conjugated antibodies: CD3, CD4, CD8, CD45RA, CD45RO, CD62L, CCR7, CD27, and CD122 (BD Biosciences, San Jose, CA; and BioLegend, San Diego, CA). Fluorescent absolute counting beads (Spherotech, Lake Forest, IL) were added just prior to acquisition. Data acquisition was performed on a BD Fortessa X-20 (BD Biosciences) and data were analyzed using Treestar software (FlowJo, Ashland, OR) and Spotfire (Tibco, Boston, MA).
(§3) These cells are characterized by expression of CCR7 and CD62L. Therefore, cells co-expressing both of these identifying markers were evaluated. Within the viable CD4+ population and viable CD8+ population, the percent of cells co-expressing CCR7 and CD62L was determined. The expression of either CD62L or CCR7 on T cells, as indicative of the desired T cell subsets, have been described as having favorable functional characteristics for CAR-T cell therapy, and potentially other adoptive T cell therapies.
(§4) The number of events in each of these gates relative to the number of absolute counting beads in each sample was calculated, defining a measure of the absolute number of naïve, stem cell memory, or central memory T cells within the CD4+ and/or CD8+ populations. A z-Score relative to the screened compound samples within each 384-well plate was calculated for each of these four values: 1) percent CCR7+CD62L+in CD4+, 2) percent CCR7+CD62L+in CD8+, 3) absolute relative number of CCR7+CD62L+in CD4+, and 4) absolute number of CCR7+CD62L+in CD8+(FIGS. 1A and 1i). Z-scores were also calculated for the percent viability of all cells within each sample and the relative absolute number of cells within each sample. A “Z-Score” is a statistical measurement of a score's relationship to the mean in a group of scores. AZ-score of 0 means the score is the same as the mean. AZ-score can also be positive or negative, indicating whether it is above or below the mean and by how many standard deviations.
On the technique in general: Flow cytometry measures light scatter and fluorescence of single cells or particles in a stream.

Assay [2] relates to viable CD4+ population. The assay is described as follows: T cell compound screen: CCR7+CD62L+ cells in the viable CD4+ population (flow cytometry). The note with it: 10 μM, about 6 days, anti-CD3/anti-CD28 beads; hit = Z-score > +2 for percent or absolute number CCR7+CD62L+ in CD4+.
Excerpt: as §1, §2, §3, §4

Assay [3] concerns CD8 T cells transduced with the CAR-2 construct. The assay is described as follows: Larger-scale (24-well GREX) CAR-T culture: viability and expansion. The settings on record: expanded with compound or vehicle for 6 days. An excerpt: The cells were transduced with the CAR-2 construct (FIG. 2) one day after activation and then replated into 24-well GREX plates with or without compounds. Half the media was replaced every two days thereafter until harvest one week post activation. Cells were activated and expanded in the presence of compound or vehicle for 6 days.

SMILES strings stand for the structures. “Also recorded” adds a separate entry of the source.

Regarding `CNC(=O)c1cc(Oc2ccc(NC(=O)Nc3cc(C(C)(C)C)nn3-c3ccc4ncccc4c3)c(F)c2)ccn1` [DCC-2036, Rebastinib], in assay [1], the “CD8 Hit” value was “CD8”. Also, the “CD4 Hit” value in assay [2] is “CD4”. Further, in assay [3] (FIG. 3A), the CAR-T cell viability entry is “improved; also recorded: maintaining viability”. Besides, the CAR-T cell expansion result in assay [3] (FIG. 3B) is given as “improved; also recorded: enhancing expansion”.
